Experimental data: patent US7947285B2, “Methods for preventing post endoscopic retrograde cholangiopancreatography pancreatitis” (priority 2003, dated 2011)
Where no end group is shown, it is not given here.

Assays:
[1] = system: patients undergoing ERCP; assay: Return to baseline (pre-ERCP) activity and return to work; type: in vivo, human
Procedure: (§1) Incidence of post-ERCP pancreatitis (sPS vs. placebo) was evaluated as the primary efficacy variable in this study. Secondary efficacy variables included incidences of post-ERCP pancreatitis in the following sub-populations: (1) cannulation of CBD; (2) sphincterotomy of CBD; (3) cannulation of pancreatic duct; (4) sphincterotomy of pancreatic duct; (5) stent insertion and removal into CBD; (6) stent insertion and removal into pancreatic duct; (7) stone extraction (basket) from CBD; (8) stone extraction (balloon) from CBD; (9) manometry of CBD; (10) manometry of pancreatic duct; (11) pain scores pre and post ERCP (0-10 scale); (12) nausea scores pre and post ERCP (0-10 scale); (13) vomiting scores pre and post ERCP (0-10 scale); (14) return to baseline activity (pre-ERCP); and (15) return to work.
Additional secondary efficacy variables assessed were return to baseline (pre-ERCP levels of activity) and the time in days to return of pre-ERCP activity levels. There was a small difference in the percentage of patients reporting return to baseline activity within the follow-up period (2 to 4 days post-ERCP) favoring the placebo group (p=0.0230) (49.78% vs. 42.09%). Interims of the mean number of days required to achieve pre-ERCP activity levels, was 0.6 (±1.0) for the sPS group and 0.7 (±0.9) for the placebo group. An attempt was made to obtain information on return to work. Relatively few data points were able to be collected, however, because a large percentage of patients were not working pre-ERCP (retired, too ill, etc.) among the 185 patients (95 in the sPS group and 90 in the placebo group) providing relevant responses for this variable, 46.32% of sPS patients and 50.00% of placebo patients reported returning to work within the follow-up period.

[2] = system: patients undergoing ERCP; assay: Incidence and severity of post-ERCP pancreatitis, randomized double-blind placebo controlled study; type: in vivo, human
Text: This was a prospectively randomized, parallel group, double-blind, placebo controlled study conducted at one center. This was the ideal study design for evaluation of the prophylactic use of sPS in ERCP to decrease the incidence of post-ERCP pancreatitis. Parallel group design was necessary because patients usually require only one ERCP and, in any case, the first procedure might have an unknown effect on the outcome of a subsequent ERCP. Double-blinding the study was necessary because a major component of the evaluation related to symptoms such as pain and nauseas, which are, in part, subjective for the patient. The final classification of each patient required an overall medical judgment by the investigator. In order for this to be as objective as possible, the assessor (Principal Investigator) had to be blinded. Placebo control with normal saline was required because there is no approved or medically accepted drug to prevent post-ERCP pancreatitis. Further, sterile normal saline, USP for injection was completely safe with no pharmacological effect and produced a clear, colorless solution, which was indistinguishable from reconstituted sPS.
Patients undergoing ERCP for medical reasons were the appropriate population to evaluate because only those requiring ERCP have the procedure and are subject to the known risk of post-ERCP pancreatitis. The patients had to meet all of the inclusion criteria to be enrolled in the study. […] Subjects were discontinued for the following reasons: (1) voluntary withdraw at subject's request; (2) noncompliance by subject to study procedures; (3) protocol violation such as discovery of pancreas divisum at the time of the ERCP, or (4) excessive toxicity from any study procedure or drug which in the judgment of the investigator makes continuation in the study contrary to the subject's medical interests. Subjects who discontinued from the study after receiving study drug were followed for safety and were replaced.
This study compared synthetic porcine secretin (sPS) at a dose of 16 mcg (8 mL) (24 mcg for procedures longer than 30 minutes) given as a slow IV push over one minute and an equal volume of physiologic sterile saline USP for injection. Subjects were randomly assigned to one of two treatment groups (sPS vs. saline placebo) based on a randomization schedule generated at ChiRhoClin, Inc (Burtonsville, Md.). […] The final syringe with an identical appearing clear, colorless solution of identical volume containing either reconstituted sPS or saline was then delivered to the investigator performing the ERCP. The randomization code assigned patients in a 1:1 manner between the two treatments and was balanced in blocks of 250 patients.
as §1
In addition, the severity of pancreatitis was graded as defined by Cotton (Cotton, PB Gastrointest. Endosc. 40(4):514-18 (1994)), using the following criteria: (1) Minimal—managed on an outpatient basis; (2) Mild—Required hospitalization ≦3 days; (3) Moderate—required hospitalization for 4 to 10 days; and (4) Severe—required hospitalization for >10 days, ICU admission, surgical intervention or death. […]

[3] = of 44 cases, hospitalization 4 to 10 days
[4] = of 44 cases, hospitalization >10 days, ICU, surgery or death
[5] = of 44 cases, hospitalization ≦3 days
[6] = of 44 cases, managed on an outpatient basis
[7] = overall, N = 488, 16 mcg IV (24 mcg if >30 min), p 0.0161 vs placebo
[8] = sub-population Cannulation of CBD, N = 361
[9] = sub-population Cannulation of CBD, N = 361, p 0.0010
[10] = sub-population Cannulation of Pancreatic Duct, N = 220
[11] = sub-population Cannulation of Pancreatic Duct, N = 220, p 0.1237
[12] = sub-population Manometry of CBD, N = 19
[13] = sub-population Manometry of CBD, N = 19, p 0.0819
[14] = sub-population Manometry of Pancreatic Duct, N = 11
[15] = sub-population Manometry of Pancreatic Duct, N = 11, p 0.3665
[16] = sub-population Sphincterotomy of CBD, N = 140
[17] = sub-population Sphincterotomy of CBD, N = 140, p 0.0001
[18] = sub-population Sphincterotomy of Pancreatic Duct, N = 26
[19] = sub-population Sphincterotomy of Pancreatic Duct, N = 26, p 0.1666
[20] = sub-population Stent Insertion into CBD, N = 108
[21] = sub-population Stent Insertion into CBD, N = 108, p 0.0856
[22] = sub-population Stent Insertion into Pancreatic Duct, N = 23
[23] = sub-population Stent Insertion into Pancreatic Duct, N = 23, p 1.0000
[24] = sub-population Stent Removal from CBD, N = 58
[25] = sub-population Stent Removal from CBD, N = 58, p 0.6185
[26] = sub-population Stent Removal from Pancreatic Duct, N = 17
[27] = sub-population Stent Removal from Pancreatic Duct, N = 17, p 1.0000
[28] = sub-population Stone Extraction (Balloon), N = 55
[29] = sub-population Stone Extraction (Balloon), N = 55, p 1.0000
[30] = sub-population Stone Extraction (Basket), N = 35
[31] = sub-population Stone Extraction (Basket), N = 35, p 0.2298

## synthetic porcine secretin (HSDGTFTSELSRLRDSARLQRLLQGLV-NH2; ends and bridges not checked; UniProt P63298 33-59, looked up) [SPS, synthetic form of porcine secretin, a 27 amino acid gastrointestinal peptide hormone]
[1]; in vivo
  mean number of days required to achieve pre-ERCP activity levels: 0.6 (±1.0) days
[1]; within the follow-up period (2 to 4 days post-ERCP), p=0.0230 favoring placebo
  percentage of patients reporting return to baseline activity: 42.09%
[1]; within the follow-up period, 95 patients in the sPS group, not significant
  patients reported returning to work: 46.32%
[2]; N = 488/44
  Post-ERCP Pancreatitis Severity Total (%): 100.0%
  Post-ERCP Pancreatitis Severity Total: number of cases: 44
[2]; of 44 cases
  Post-ERCP Pancreatitis Severity Unknown (%): 15.91%
  Post-ERCP Pancreatitis Severity Unknown: number of cases: 7
[2]; [3]
  Post-ERCP Pancreatitis Severity Moderate (%): 20.45%
  Post-ERCP Pancreatitis Severity Moderate: number of cases: 9
[2]; [4]
  Post-ERCP Pancreatitis Severity Severe (%): 2.27%
  Post-ERCP Pancreatitis Severity Severe: number of cases: 1
[2]; [5]
  Post-ERCP Pancreatitis Severity Mild (%): 31.82%
  Post-ERCP Pancreatitis Severity Mild: number of cases: 14
[2]; [6]
  Post-ERCP Pancreatitis Severity Minimal (%): 29.55%
  Post-ERCP Pancreatitis Severity Minimal: number of cases: 13
[2]; overall, N = 488, 16 mcg IV
  Incidence of Post-ERCP Pancreatitis, No (%): 90.98%
  Incidence of Post-ERCP Pancreatitis, No: number of patients: 444
[2]; [7]
  Incidence of Post-ERCP Pancreatitis, Yes (%): 9.02%
  Incidence of Post-ERCP Pancreatitis, Yes: number of patients: 44
[2]; relative to placebo, 979 patients, p=0.0137
  magnitude of the decrease in the frequency of post-ERCP pancreatitis: 36.2%
[2]; [8]
  Post-ERCP Pancreatitis No (%): 92.52%
  Post-ERCP Pancreatitis No: number of patients: 334
[2]; [9]
  Post-ERCP Pancreatitis Yes (%): 7.48%
  Post-ERCP Pancreatitis Yes: number of patients: 27
[2]; [10]
  Post-ERCP Pancreatitis No (%): 86.36%
  Post-ERCP Pancreatitis No: number of patients: 190
[2]; [11]
  Post-ERCP Pancreatitis Yes (%): 13.64%
  Post-ERCP Pancreatitis Yes: number of patients: 30
[2]; [12]
  Post-ERCP Pancreatitis No (%): 78.95%
  Post-ERCP Pancreatitis No: number of patients: 15
[2]; [13]
  Post-ERCP Pancreatitis Yes (%): 21.05%
  Post-ERCP Pancreatitis Yes: number of patients: 4
[2]; [14]
  Post-ERCP Pancreatitis No (%): 54.58%
  Post-ERCP Pancreatitis No: number of patients: 6
[2]; [15]
  Post-ERCP Pancreatitis Yes (%): 45.45%
  Post-ERCP Pancreatitis Yes: number of patients: 5
[2]; [16]
  Post-ERCP Pancreatitis No (%): 95.00%
  Post-ERCP Pancreatitis No: number of patients: 133
[2]; [17]
  Post-ERCP Pancreatitis Yes (%): 5.00%
  Post-ERCP Pancreatitis Yes: number of patients: 7
[2]; [18]
  Post-ERCP Pancreatitis No (%): 57.85%
  Post-ERCP Pancreatitis No: number of patients: 14
[2]; [19]
  Post-ERCP Pancreatitis Yes (%): 46.15%
  Post-ERCP Pancreatitis Yes: number of patients: 12
[2]; [20]
  Post-ERCP Pancreatitis No (%): 97.22%
  Post-ERCP Pancreatitis No: number of patients: 105
[2]; [21]
  Post-ERCP Pancreatitis Yes (%): 2.78%
  Post-ERCP Pancreatitis Yes: number of patients: 3
[2]; [22]
  Post-ERCP Pancreatitis No (%): 78.26%
  Post-ERCP Pancreatitis No: number of patients: 18
[2]; [23]
  Post-ERCP Pancreatitis Yes (%): 21.74%
  Post-ERCP Pancreatitis Yes: number of patients: 5
[2]; sub-population Stent Insertion into Pancreatic Duct, N = 23, p 1.0000, listed as sPS
  Post-ERCP Pancreatitis Yes (%): 21.7%
[2]; [24]
  Post-ERCP Pancreatitis No (%): 98.28%
  Post-ERCP Pancreatitis No: number of patients: 57
[2]; [25]
  Post-ERCP Pancreatitis Yes (%): 1.72%
  Post-ERCP Pancreatitis Yes: number of patients: 1
[2]; [26]
  Post-ERCP Pancreatitis No (%): 88.24%
  Post-ERCP Pancreatitis No: number of patients: 15
[2]; [27]
  Post-ERCP Pancreatitis Yes (%): 11.76%
  Post-ERCP Pancreatitis Yes: number of patients: 2
[2]; [28]
  Post-ERCP Pancreatitis No (%): 92.73%
  Post-ERCP Pancreatitis No: number of patients: 51
[2]; [29]
  Post-ERCP Pancreatitis Yes (%): 7.27%
  Post-ERCP Pancreatitis Yes: number of patients: 4
[2]; [30]
  Post-ERCP Pancreatitis No (%): 97.14%
  Post-ERCP Pancreatitis No: number of patients: 34
[2]; [31]
  Post-ERCP Pancreatitis Yes (%): 2.86%
  Post-ERCP Pancreatitis Yes: number of patients: 1
